One assay deals with Penicillium. The assay can be described thus: Antifungal activity against Penicillium at 50 ug/ml after 72 hrs by disc diffusion method. In kind it is functional, organism-based.
For the next assay, the system named is Staphylococcus aureus. As to the kind of experiment: Antibacterial activity against Staphylococcus aureus at 250 ug/ml after 24 to 45 hrs by disc diffusion method. In kind it is functional. The note with it: read-out: IZ.
In the next assay the test system is Pseudomonas. As to the kind of experiment: Antibacterial activity against Pseudomonas at 250 ug/ml after 24 to 45 hrs by disc diffusion method. In kind it is functional. To be noted: read-out: IZ.
The subject of another assay is Aspergillus niger. As to the kind of experiment: Antifungal activity against Aspergillus niger at 50 ug/ml after 72 hrs by disc diffusion method. In kind it is functional, organism-based.
The subject of another assay is Klebsiella pneumoniae. As to the kind of experiment: Antibacterial activity against Klebsiella pneumoniae at 250 ug/ml after 24 to 45 hrs by disc diffusion method. In kind it is functional. The note with it: read-out: IZ.
A further assay has as its system Enterococcus faecalis. The assay can be described thus: Antibacterial activity against Enterococcus faecalis at 250 ug/ml after 24 to 45 hrs by disc diffusion method. In kind it is functional. To be noted: for zone of inhibition at 250 µg/mL: read-out: IZ.
The next assay relates to Proteus vulgaris. As to the kind of experiment: Antibacterial activity against Proteus vulgaris at 250 ug/ml after 24 to 45 hrs by disc diffusion method. In kind it is functional. To be noted: read-out: IZ.
The test system of a further assay is Escherichia coli. The assay can be described thus: Antibacterial activity against Escherichia coli at 250 ug/ml after 24 to 45 hrs by disc diffusion method. In kind it is functional. The note with it: read-out: IZ.
Assay [1] deals with Achaea janata. The assay can be described thus: Antifeedant activity against fourth instar larvae of Achaea janata fed on compound treated castor leaves at 150 ppm after 24 hrs by leaf disc method. In kind it is functional, organism-based.
The test system of the next assay is Candida albicans. As to the kind of experiment: Antifungal activity against Candida albicans at 250 ug/ml after 72 hrs by disc diffusion method. To be noted: for zone of inhibition at 250 µg/mL: read-out: IZ. In kind it is functional.
Assay [2] relates to Achaea janata. The assay can be described thus: Antifeedant activity against fourth instar larvae of Achaea janata fed on compound treated castor leaves at 200 ppm after 24 hrs by leaf disc method. In kind it is functional, organism-based.

Active and inactive are the calls of the source. Unless noted, the rule behind the calls is not given here.

The values that follow come from ChEMBL document CHEMBL3046842, “Antimicrobial and insect antifeedant activities of some Trogers bases” (2012).

Regarding `Fc1cc2c(cc1Cl)N1Cc3cc(F)c(Cl)cc3N(C2)C1`, the outcome in the assay with Penicillium, with Achaea janata [1] and in the assay on Achaea janata [2] was Active. Also, the zone of inhibition at 250 µg/mL in the assay with Staphylococcus aureus, in the assay on Pseudomonas, in the assay on Klebsiella pneumoniae, in the assay on Proteus vulgaris, in the assay on Escherichia coli and in the assay with Candida albicans was 13 mm each time. Also, the result with Aspergillus niger and in the assay with Enterococcus faecalis was inactive.

With `Fc1cc(F)c2c(c1)CN1CN2Cc2cc(F)cc(F)c21`, the outcome with Penicillium, in the assay on Aspergillus niger, in the assay on Enterococcus faecalis and in the assay with Candida albicans was inactive. The zone of inhibition at 250 µg/mL is 8 mm in the assay on Staphylococcus aureus; 8 mm in the assay on Pseudomonas; 8 mm with Klebsiella pneumoniae; 8 mm with Proteus vulgaris; 13 mm with Escherichia coli. Further, the outcome in the assay with Achaea janata [1] and with Achaea janata [2] was Active.

For the compound `FC(F)(F)c1ccc2c(c1)CN1CN2Cc2cc(C(F)(F)F)ccc21`, the outcome in the assay with Penicillium, in the assay on Aspergillus niger, in the assay on Enterococcus faecalis and in the assay on Candida albicans was inactive. The zone of inhibition at 250 µg/mL with Staphylococcus aureus, with Pseudomonas, in the assay on Klebsiella pneumoniae, in the assay on Proteus vulgaris and in the assay with Escherichia coli was 13 mm in each case. Moreover, the outcome with Achaea janata [1] and in the assay on Achaea janata [2] was Active.

Turning to `Clc1cccc2c1CN1CN2Cc2c(Cl)cccc21`, the result in the assay on Penicillium and with Aspergillus niger was inactive. Also, the zone of inhibition at 250 µg/mL in the assay with Staphylococcus aureus was 13 mm; in the assay with Pseudomonas, 8 mm; in the assay on Klebsiella pneumoniae, 8 mm; with Enterococcus faecalis it was 13 mm; in the assay with Proteus vulgaris it was 8 mm; with Escherichia coli it was 8 mm. Further, in the assay on Candida albicans, the zone of inhibition at 250 µg/mL was 8 mm. Besides, the outcome in the assay on Achaea janata [2] was Active.

As to `Cc1ccc2c(c1I)CN1CN2Cc2c1ccc(C)c2I`, the result in the assay on Penicillium and in the assay on Aspergillus niger was inactive. Besides, the zone of inhibition at 250 µg/mL in the assay on Staphylococcus aureus worked out at 8 mm; with Pseudomonas, 13 mm; in the assay on Klebsiella pneumoniae, 13 mm; in the assay on Enterococcus faecalis, 13 mm; with Proteus vulgaris, 8 mm; in the assay on Escherichia coli, 8 mm. Also, the zone of inhibition at 250 µg/mL in the assay on Candida albicans is 13 mm. For the same compound, the result with Achaea janata [2] was Active.

Consider `Brc1cccc2c1N1Cc3cccc(Br)c3N(C2)C1`, for which the outcome with Penicillium, with Aspergillus niger, in the assay on Enterococcus faecalis and in the assay on Candida albicans was inactive. In addition, the zone of inhibition at 250 µg/mL with Staphylococcus aureus is 8 mm; in the assay on Pseudomonas, 8 mm; in the assay on Klebsiella pneumoniae it was 8 mm; in the assay on Proteus vulgaris, 8 mm; with Escherichia coli it was 13 mm. Besides, in the assay on Achaea janata [2], the outcome was Active.
